# Results: patent US20260062422A1 (Halda Therapeutics OpCo, Inc., priority 2022, published 2026)
# What was measured:
# [1] = test system: T-Rex 293 cell line SC3 cells having increased expression of androgen receptor protein due to exposure to doxycycline; assay: Cellular growth inhibition, T-Rex 293 SC3 cells with doxycycline (androgen receptor induced), CellTiter-Glo; type: cell-based; conditions: T-Rex 293 SC3 cells with 10 ng/mL doxycycline (increased androgen receptor expression)
# Procedure, shortened: (§1)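 Growth inhibition was compared in a T-Rex 293 clone with and without doxycycline (10 ng/mL)-driven androgen receptor overexpression. Compounds were applied for 72 h in hormone-depleted serum, and GI50 came from four-parameter curves of CellTiter-Glo signal.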
# VCaP cells = assay: Cellular growth inhibition assay for VCaP cells, CellTiter-Glo; type: cell-based, human; conditions: 72 hours treatment, CellTiter-Glo 2.0
# Procedure, shortened: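 GI50 values come from four-parameter curve fits of luminescence data normalized to a zero baseline. Compound, in medium with 0.5% DMSO, was added one day after plating and left for 72 h before CellTiter-Glo 2.0 addition.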
# [2] = test system: T-Rex 293 cell line SC3 cells lacking increased expression of androgen receptor protein; assay: Cellular growth inhibition, T-Rex 293 SC3 cells without doxycycline, CellTiter-Glo; type: cell-based; conditions: T-Rex 293 SC3 cells not exposed to doxycycline, CellTiter-Glo 2.0
# Procedure, shortened: as §1
# T47D cells = assay: Cellular growth inhibition assay for T47D cells, CellTiter-Glo; type: cell-based, human; conditions: 72 hours treatment, CellTiter-Glo 2.0 cell viability
# Procedure, shortened: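 Cells are plated at 3000/well and allowed 24 h before treatment. Test compound in medium containing 0.5% DMSO is then added, with DMSO-only wells as negative control, and plates are incubated 72 h at 37 °C. ATP luminescence (CellTiter-Glo 2.0) is then fitted to four parameters to derive GI50.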
Compound,GI50 ([1]; 72 h) [nM],"GI50 (VCaP cells; Homo sapiens, VCaP, 72 h) [nM]",GI50 ([2]; 72 h) [nM],"GI50 (T47D cells; Homo sapiens, T47D, 72 h) [nM]",GI50 ([1]; 72 hours) [nM],GI50 (VCaP cells) [nM],GI50 ([2]; 72 hours) [nM],GI50 (T47D cells) [nM]
Cc1sc2c(c1C)C(c1ccc(OC3CC4(C3)CC3(CCN(c5ccc(C(=O)N[C@H]6C(C)(C)[C@H](Oc7ccc(C#N)c(Cl)c7)C6(C)C)cn5)CC3)C4)cc1)=N[C@@H](C)c1nnc(C)n1-2 [Compound I-550],< 500,< 500,> 3000,< 500,–,–,–,–
Cc1sc2c(c1C)C(c1ccc(CC3CCN(c4ncc(C(=O)N[C@H]5C(C)(C)[C@H](Oc6ccc(C#N)c(Cl)c6)C5(C)C)cn4)CC3)cc1)=NC1(CC1)c1nnc(C)n1-2 [Compound I-555],< 500,< 500,500 to 1500,> 3000,–,–,–,–
Cc1sc2c(c1C)C(c1ccc(CC3CCN(c4ncc(C(=O)N[C@H]5C(C)(C)[C@H](Oc6ccc(C#N)c(Cl)c6)C5(C)C)cn4)CC3)cc1)=N[C@@H](C)c1nnc(C)n1-2 [Compound I-557],< 500,< 500,< 500,> 3000,–,–,–,–
COC[C@@H]1N=C(c2ccc(OC3CC4(CCN(c5ncc(C(=O)N[C@H]6C(C)(C)[C@H](Oc7ccc(C#N)c(Cl)c7)C6(C)C)cn5)CC4)C3)cc2)c2c(sc(C)c2C)-n2c(C)nnc21 [Compound I-565],< 500,< 500,> 3000,1500 to 3000,–,–,–,–
COCC[C@@H]1N=C(c2ccc(OC3CC4(CCN(c5ncc(C(=O)N[C@H]6C(C)(C)[C@H](Oc7ccc(C#N)c(Cl)c7)C6(C)C)cn5)CC4)C3)cc2)c2c(sc(C)c2C)-n2c(C)nnc21 [Compound I-566],< 500,< 500,> 3000,> 3000,–,–,–,–
COC[C@@H]1N=C(c2ccc(OC3CC4(CCCN(c5ncc(C(=O)N[C@H]6C(C)(C)[C@@H](Oc7ccc(C#N)c(Cl)c7)C6(C)C)cn5)C4)C3)cc2)c2c(sc(C)c2C)-n2c(C)nnc21 [Compound I-567],< 500,< 500,> 3000,> 3000,–,–,–,–
COC[C@@H]1N=C(c2ccc(OC3CC4(CCCN(c5ncc(C(=O)N[C@H]6C(C)(C)[C@H](Oc7ccc(C#N)c(Cl)c7)C6(C)C)cn5)C4)C3)cc2)c2c(sc(C)c2C)-n2c(C)nnc21 [Compound I-568],< 500,< 500,> 3000,< 500,–,–,–,–
COCC[C@@H]1N=C(c2ccc(OC3CC4(CCCN(c5ncc(C(=O)N[C@H]6C(C)(C)[C@@H](Oc7ccc(C#N)c(Cl)c7)C6(C)C)cn5)C4)C3)cc2)c2c(sc(C)c2C)-n2c(C)nnc21 [Compound I-569],< 500,< 500,> 3000,> 3000,–,–,–,–
COCC[C@@H]1N=C(c2ccc(OC3CC4(CCCN(c5ncc(C(=O)N[C@H]6C(C)(C)[C@@H](Oc7ccc(C#N)c(Cl)c7)C6(C)C)cn5)C4)C3)cc2)c2c(sc(C)c2C)-n2c(C)nnc21 [Compound I-570],–,–,–,–,< 500,< 500,> 3000,> 3000
Cc1sc2c(c1C)C(c1ccc(C3CC(N4CCN(c5ncc(C(=O)N[C@H]6C(C)(C)[C@H](Oc7ccc(C#N)c(Cl)c7)C6(C)C)cn5)CC4)C3)cc1)=N[C@@H](C)c1nnc(C)n1-2 (stereo partly drawn) [Compound I-571],< 500,< 500,500 to 1500,< 500,–,–,–,–
Cc1sc2c(c1C)C(c1ccc(C3CC(N4CCN(c5ccc(C(=O)N[C@H]6C(C)(C)[C@H](Oc7ccc(C#N)c(Cl)c7)C6(C)C)cn5)CC4)C3)cc1)=N[C@@H](C)c1nnc(C)n1-2 (stereo partly drawn) [Compound I-572],< 500,< 500,< 500,< 500,–,–,–,–
Cc1sc2c(c1C)C(c1ccc(C3CC(N4CCN(c5cnc(C(=O)N[C@H]6C(C)(C)[C@H](Oc7ccc(C#N)c(Cl)c7)C6(C)C)cn5)CC4)C3)cc1)=N[C@@H](C)c1nnc(C)n1-2 (stereo partly drawn) [Compound I-573],< 500,< 500,500 to 1500,< 500,–,–,–,–
CC[C@@H]1N=C(c2ccc(C#CC3CC4(C3)CN(c3ncc(C(=O)N[C@H]5C(C)(C)[C@H](Oc6ccc(C#N)c(Cl)c6)C5(C)C)cn3)C4)cc2)c2c(sc(C)c2C)-n2c(C)nnc21 [Compound I-576],< 500,500 to 1500,500 to 1500,< 500,–,–,–,–
Cc1sc2c(c1C)C(c1ccc(C3CC(N4CCN(c5ccc(C(=O)N[C@H]6C(C)(C)[C@H](Oc7ccc(C#N)c(Cl)c7)C6(C)C)nc5)CC4)C3)cc1)=N[C@@H](C)c1nnc(C)n1-2 (stereo partly drawn) [Compound I-577],< 500,< 500,500 to 1500,< 500,–,–,–,–
Cc1sc2c(c1C)C(c1ccc(N3CCC4(C3)CN(c3cnc(C(=O)N[C@H]5C(C)(C)[C@H](Oc6ccc(C#N)c(Cl)c6)C5(C)C)cn3)C4)cc1)=N[C@@H](C)c1nnc(C)n1-2 [Compound I-578],> 3000,< 500,> 3000,< 500,–,–,–,–
CC[C@@H]1N=C(c2ccc(C#CC3CC4(C3)CN(c3cnc(C(=O)N[C@H]5C(C)(C)[C@H](Oc6ccc(C#N)c(Cl)c6)C5(C)C)cn3)C4)cc2)c2c(sc(C)c2C)-n2c(C)nnc21 [Compound I-583],< 500,< 500,500 to 1500,< 500,–,–,–,–
COCC[C@@H]1N=C(c2ccc(OC3CC4(C3)CC3(CCN(c5ncc(C(=O)N[C@H]6C(C)(C)[C@H](Oc7ccc(C#N)c(Cl)c7)C6(C)C)cn5)CC3)C4)cc2)c2c(sc(C)c2C)-n2c(C)nnc21 [Compound I-584],< 500,< 500,> 3000,< 500,–,–,–,–
COCC[C@@H]1N=C(c2ccc(CC3CC4(CCN(c5ncc(C(=O)N[C@H]6C(C)(C)[C@H](Oc7ccc(C#N)c(Cl)c7)C6(C)C)cn5)CC4)C3)cc2)c2c(sc(C)c2C)-n2c(C)nnc21 [Compound I-585],< 500,< 500,> 3000,< 500,–,–,–,–
COCC[C@@H]1N=C(c2ccc(CC3CC4(CCN(c5cnc(C(=O)N[C@H]6C(C)(C)[C@H](Oc7ccc(C#N)c(Cl)c7)C6(C)C)cn5)CC4)C3)cc2)c2c(sc(C)c2C)-n2c(C)nnc21 [Compound I-586],< 500,< 500,> 3000,< 500,–,–,–,–
Cc1sc2c(c1C)C(c1ccc(N3C[C@@]4(F)CN(c5ncc(C(=O)N[C@H]6C(C)(C)[C@H](Oc7ccc(C#N)c(Cl)c7)C6(C)C)cn5)C[C@@]4(F)C3)cc1)=N[C@@H](C)c1nnc(C)n1-2 [Compound I-587],< 500,< 500,> 3000,< 500,–,–,–,–
Cc1sc2c(c1C)C(c1ccc(CC3CC4(CCN(c5ccc(C(=O)N(C)[C@H]6C(C)(C)[C@H](Oc7ccc(C#N)c(Cl)c7)C6(C)C)cn5)CC4)C3)cc1)=N[C@@H](C)c1nnc(C)n1-2 [Compound I-589],< 500,< 500,> 3000,500 to 1500,–,–,–,–
Cc1sc2c(c1C)C(c1ccc(C3CN(C(=O)C4CCN(c5ncc(C(=O)N[C@H]6C(C)(C)[C@H](Oc7ccc(C#N)c(Cl)c7)C6(C)C)cn5)CC4)C3)cc1)=N[C@@H](C)c1nnc(C)n1-2 [Compound I-590],< 500,< 500,< 500,< 500,–,–,–,–
CC[C@@H]1N=C(c2ccc(N3CC(CC4CCN(c5ncc(C(=O)N[C@H]6C(C)(C)[C@H](Oc7ccc(C#N)c(Cl)c7)C6(C)C)cn5)CC4)C3)cc2)c2c(sc(C)c2C)-n2c(C)nnc21 [Compound I-593],< 500,< 500,> 3000,< 500,–,–,–,–
CC[C@@H]1N=C(c2ccc(N3CC(CC4CCN(c5cnc(C(=O)N[C@H]6C(C)(C)[C@H](Oc7ccc(C#N)c(Cl)c7)C6(C)C)cn5)CC4)C3)cc2)c2c(sc(C)c2C)-n2c(C)nnc21 [Compound I-594],> 3000,> 3000,> 3000,1500 to 3000,–,–,–,–
